Assay results: US8906929B2, “Inhibitors of human immunodeficiency virus replication” (priority 2012, dated 2014)
Like-named read-outs stand apart in the source and are kept apart here.

What was measured:
[1] = rcm bond, Hoveyda-Grubbs II, DCE
[2] = rcm bond, Hoveyda-Grubbs II, DCE; remark: listed apart in the source

Molecule: COC(=O)[C@@H](OC(C)(C)C)c1c(C)nc2cc3nn2c1-c1ccc2c(c1Cl)N(CC=CCCc1ccccc1-c1cccc-3c1)CCO2
- ring closure, yield after HPLC ([1]; from C=CCCc1ccccc1-c1cccc(-c2cc3nc(C)c([C@H](OC(C)(C)C)C(=O)OC)c(-c4ccc5c(c4Cl)N(CC=C)CCO5)n3n2)c1, 18-membered ring, 28.0 mM, 50.0 °C, 1.0 h): 26.5%
- ring closure, isolated yield ([2]; from C=CCCc1ccccc1-c1cccc(-c2cc3nc(C)c([C@H](OC(C)(C)C)C(=O)OC)c(-c4ccc5c(c4Cl)N(CC=C)CCO5)n3n2)c1, 18-membered ring, 70.0 °C, 4.0 h): 73%

Molecule: COC(=O)[C@@H](OC(C)(C)C)c1c(C)nc2cc3nn2c1N1CCC(C)(CC1)OCC=CC(C)Oc1ccccc1-c1cccc-3c1 (stereo partly drawn)
- ring closure, yield after HPLC ([1]; from C=CCOC1(C)CCN(c2c([C@H](OC(C)(C)C)C(=O)OC)c(C)nc3cc(-c4cccc(-c5ccccc5OC(C)C=C)c4)nn23)CC1, 19-membered ring, 1.28 mM, 2.0 h): 98%

Molecule: COC(=O)[C@@H](OC(C)(C)C)c1c(C)nc2cc3nn2c1-c1ccc2c(c1Cl)N(CC=CCOc1cccc(c1)-c1cccc-3c1)CCO2
- ring closure, yield after HPLC ([1]; from C=CCOc1cccc(-c2cccc(-c3cc4nc(C)c([C@H](OC(C)(C)C)C(=O)OC)c(-c5ccc6c(c5Cl)N(CC=C)CCO6)n4n3)c2)c1, 19-membered ring, then NaOH, 29.0 mM, 50.0 °C, 5.0 h, 2 steps): 26.6%

Molecule: Methyl (2S)-2-(tert-butoxy)-2-[(23E)-4,27-dimethyl-21,26-dioxa-1,5,7,8-tetraazahexacyclo[25.2.2.1^6,^9.1^10,^14.0^2,^7.0^15,^20]tritriaconta-2,4,6(33),8,10(32),11,13,15(20),16,18,23-undecaen-3-yl]acetate
- ring closure, isolated yield ([2]; 19-membered ring, 1.3 mM): 100%

Molecule: COC(=O)[C@@H](OC(C)(C)C)c1c(C)nc2cc3nn2c1-c1ccc2c(c1)C(CC=CCOc1ccccc1-c1cccc-3c1)CCO2 (stereo partly drawn)
- ring closure, isolated yield ([2]; from C=CCOc1ccccc1-c1cccc(-c2cc3nc(C)c([C@H](OC(C)(C)C)C(=O)OC)c(-c4ccc5c(c4)C(CC=C)CCO5)n3n2)c1, 18-membered ring, 2.06 mM, 70.0 °C, 3.0 h): 84%
